Legend:
[1] = target: Voltage-gated L-type calcium channel (Homo sapiens, UniProt Q13936+Q13698+Q01668+O60840); assay: Calcium channel antagonistic activity relative to 2,6-Dimethyl-4-(2-nitro-phenyl)-1,4-dihydro-pyridine-3,5-dicarboxylic acid dimethyl ester(=100); format: functional, Cavia porcellus; settings: guinea pig
Cavia porcellus = species: Cavia porcellus; assay: Inhibition of muscarinic receptor mediated [Ca2+] dependent contraction of guinea pig ileal longitudinal smooth muscle; format: functional

Compound | Relative activity [1] | ID50 (Cavia porcellus)
COC(=O)C1=C(C)NC(C)=C(C(=O)OC)C1c1ccccc1 | 18 | 28 nM
COC(=O)C1=C(C)N=C(C)/C(=C(\O)OC)C1c1c(F)c(F)c(F)c(F)c1F (configuration not stated) |  | 0.9 nM
COC(=O)C1=C(C)NC(C)=C(C(=O)OC)C1c1ccc(N(C)C)cc1 | 0.005 | 50000 nM
COC(=O)C1=C(C)NC(C)=C(C(=O)OC)C1c1ccccc1[N+](=O)[O-] [NIFEDIPINE] | 100 | 5.1 nM
COC(=O)C1=C(C)N=C(C)/C(=C(\O)OC)C1c1cccc(C)c1 (configuration not stated) | 4.6 | 110 nM
COC(=O)C1=C(C)N=C(C)/C(=C(\O)OC)C1c1ccc([N+](=O)[O-])cc1[N+](=O)[O-] (configuration not stated) | < 0.05 | >50000 nM
COC(=O)C1=C(C)N=C(C)/C(=C(\O)OC)C1c1ccc(C)cc1 (configuration not stated) | < 0.05 | 50000 nM
CCOC(=O)C1=C(C)NC(C)=C(C(=O)OCC)C1c1ccccc1 | ~ 18 | 30 nM
COC(=O)C1=C(C)N=C(C)/C(=C(\O)OC)C1c1cccc(C#N)c1 (configuration not stated) | 1.7 | 300 nM
